Laboratory results reported in US20240002372A1, “ANTICHOLINERGIC AGENTS” (REZUBIO PHARMACEUTICALS CO., LTD, priority 2020, published 2024).
Structures can show the parent of a compound that is named as a salt.

Molecular target: M3 receptor (Homo sapiens (Human), UniProt P20309)
Assay: FLIPR calcium flux assay, antagonist mode, CHO-K1 cells stably expressing M3 receptor
Assay type: cell-based
Details: inhibition of acetylcholine-induced calcium flux (8 nM acetylcholine, EC80)
Procedure: FLIPR assay was used to evaluate the potency of compounds. CHO-K1 cells stably expressing M3 receptor were cultured at 37° C. in the culture media (90% Ham's F-12 Nutrient Mixture, Gibco; 10% fetal bovine serum, Biosera; 200 μg/mL Hygromycin, and Penicillin (100 U/mL)/Streptomycin (100 μg/mL), Invitrogen) till 100% confluency in cell culture incubator (ThermoFisher, 5% CO2). Cells were harvested by using 0.25% Trypsin/EDTA, spun down at 300×g for 5 min, and resuspended in the culture media at cell density of 5×10^5 cells/mL. Twenty microliter of cell suspension (10,000 cells/well) was transferred to 384-well plate and cultured for 24 hr before assay. DMSO was used as blank control and scopolamine (MedChemExpress) as a positive control for antagonist. Compounds were prepared in DMSO (stock concentration: 1 mM) and 3×serially diluted (10 concentrations) in 384-LDV plate (Labcyte). Ninety nL of serially diluted compounds were transferred from 384-LDV plate into compound plate (PerkinElmer) by Echo 550 (Labcyte), and 30 uL assay buffer (1×HBSS with 20 mM HEPES, pH 7.4, Sigma) were added to each well. For FLIPR assay, culture media was removed and 20 uL of 1× loading dye (Assay buffer with 2 μM Fluo-8 AM, AAT Bioquest; 1 mM Probenecid and 0.0025% pluronic F-127, Sigma) was added to each well. The plate was incubated at 37° C. for 1 hr (avoid light exposure). For FLIPR assay, Excitation wavelength was set at 470/495 nm and Emission wavelength was set at 515/575 nm (Molecular Devices). Assay was performed in both agonist and antagonist modes. For agonist mode, 10 μL of diluted compounds were transferred to cell culture well and incubated at room temperature for 10 min. For antagonist mode, 10 μL diluted compounds with 8 nM acetylcholine (EC80, MedChemExpress) was added to each well, incubated at room temperature for 10 min. RFU value was calculated by subtracting minimum from maximum of FLIPR signal. Inhibitory effect of compounds on acetylcholine-induced calcium flux was calculated by % Effect=(RFUsample−RFUDMSO)/(RFUScopolamine−RFUDMSO)×100. Dose response curve fitting and IC50 value of each compound was calculated by using XLFit. The following table lists the IC50 where * means IC50>1000 nM; ** 10-100 nM; ***<10 nM.

Sequence of M3 receptor (P20309 whole entry): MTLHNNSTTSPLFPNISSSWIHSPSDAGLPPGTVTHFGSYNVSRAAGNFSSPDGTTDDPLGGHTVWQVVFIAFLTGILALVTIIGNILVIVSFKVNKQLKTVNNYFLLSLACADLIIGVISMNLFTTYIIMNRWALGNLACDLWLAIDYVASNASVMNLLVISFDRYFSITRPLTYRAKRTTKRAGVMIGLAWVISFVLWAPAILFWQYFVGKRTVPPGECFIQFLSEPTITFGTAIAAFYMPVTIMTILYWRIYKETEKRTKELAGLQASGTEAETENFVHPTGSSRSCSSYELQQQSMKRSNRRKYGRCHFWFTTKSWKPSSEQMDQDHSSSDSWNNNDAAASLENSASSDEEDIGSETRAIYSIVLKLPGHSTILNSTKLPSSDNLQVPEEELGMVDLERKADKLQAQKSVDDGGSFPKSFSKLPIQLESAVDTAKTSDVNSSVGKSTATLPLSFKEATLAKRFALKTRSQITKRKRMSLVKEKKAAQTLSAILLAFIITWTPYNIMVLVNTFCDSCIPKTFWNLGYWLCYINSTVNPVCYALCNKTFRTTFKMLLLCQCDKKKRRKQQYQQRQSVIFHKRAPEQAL

Row | IC50 | SMILES
1 | < 10 nM | C[N+]1(C)CCC[C@H]1COC(=O)C(O)c1ccccc1C1=CCCC1 (single isomer, unassigned) [Example 9, trifluoroacetate]
2 | 10 to 100 nM | C[N+]1(C)CC[C@H](OC(=O)C(O)c2ccccc2C2=CCCC2)C1 (single isomer, unassigned) [Example 4, trifluoroacetate]
3 | 10 to 100 nM | C[N+]1(C)CC[C@H](OC(=O)C(O)c2ccccc2C2=CCCC2)C1 (single isomer, unassigned) [Example 5, trifluoroacetate]
4 | 10 to 100 nM | C[N+]1(C)CCC[C@H]1COC(=O)C(O)c1ccccc1C1=CCCC1 (single isomer, unassigned) [Example 8, trifluoroacetate]
5 | < 10 nM | C[N+]1(C)CCC[C@@H]1COC(=O)C(O)c1ccccc1C1=CCCC1 (single isomer, unassigned) [Example 6, trifluoroacetate]
6 | 10 to 100 nM | C[N+]1(C)CC[C@@H](OC(=O)C(O)c2ccccc2C2=CCCC2)C1 (single isomer, unassigned) [Example 3, trifluoroacetate]
7 | < 10 nM | C[N+]1(C)CC[C@@H](OC(=O)C(O)c2ccccc2C2=CCCC2)C1 (single isomer, unassigned) [Example 2, trifluoroacetate]

Row | SMILES | IC50
8 | C[N+]1(C)CCC[C@@H]1COC(=O)C(O)c1ccccc1C1=CCCC1 (stereo partly drawn) [Example 7, (R)-2-((2-(2-(cyclopent-1-en-1-yl)phenyl)-2-hydroxyacetoxy)methyl)-1,1-dimethylpyrrolidin-1-ium trifluoroacetate] | 10 to 100 nM
9 | CC(C)c1ccccc1C(O)C(=O)OC1CC[N+](C)(C)C1 (stereo not drawn) [Example 12, 3-(2-hydroxy-2-(2-isopropylphenyl)acetoxy)-1,1-dimethylpyrrolidin-1-ium chloride] | > 1000 nM
10 | C[N+]1(C)CCC(OC(=O)C(O)c2ccccc2-c2ccccc2)C1 (stereo not drawn) [Example 11, 3-(2-([1,1′-biphenyl]-2-yl)-2-hydroxyacetoxy)-1,1-dimethylpyrrolidin-1-ium chloride] | 10 to 100 nM
11 | C[N+]1(C)CCC(OC(=O)C(O)c2ccccc2C2CCCC2)C1 (stereo not drawn) [Example 10, 3-[2-(2-Cyclopentyl-phenyl)-2-hydroxy-acetoxy]-1,1-dimethyl-pyrrolidinium chloride] | 10 to 100 nM
12 | C[N+]1(C)CC[C@@H](OC(=O)C(O)c2ccccc2-c2ncco2)C1 (stereo partly drawn) [Example 1, (3R)-3-(2-hydroxy-2-(2-(oxazol-2-yl)phenyl)acetoxy)-1,1-dimethylpyrrolidin-1-ium trifluoroacetate] | 10 to 100 nM
